According to US20060276462A1, “Method of treating cognitive decline due to sleep deprivation and stress” (priority 2003, published 2006):

Columns and labels:
AMPA receptor = details: cited from earlier work
[1] = system: sleep deprived non-human primates; assay: Regional glucose utilization (FDG PET) in brain during DMTS task; format: in vivo
Description: (§1) In practice, an animal is trained in the DMTS task such that his daily performance variable is relatively constant. This is judged as baseline performance. Once a stable baseline is established, the subject is deprived of sleep for variable periods in order to establish the effect of sleep deprivation on performance. The ability of an AMPA receptor modulator to ameliorate the decline in performance in the DMTS task is assessed by administered of the test compound prior to or during testing after sleep deprivation. If the test compound is administer prior to the beginning of the test session, then the effect of the drug is compared to performance following sleep deprivation on prior or subsequent days of testing. This protocol allows for the co-administration of a metabolic tracer (such as fluorodeoxyglucose labeled with fluorine-18; FDG) so that regional brain activity can be evaluated using Positron Emission Tomography (PET). Alternatively, an intravenous administration of the test compound midway into the DMTS session allows for a within-session evaluation of drug effect.
Positron Emission Tomography (PET) was used in order to examine the extent to which different brain regions were effected by sleep deprivation by measuring the uptake of ^18F-labeled fluorodeoxyglucose (FDG) into cells as a measure of metabolic activity. By this method it was observed that there was a general increase in metabolism across all brain regions on test days that followed sleep deprivation compared to normal baseline test days (FIG. 2).
The absolute values shown in FIG. 2 can be normalized to global brain metabolism (FIG. 3) by the following equation: (ROISD/GSD−ROIBL/GBL)/GBL where ROI mean region of interest, SD means under the condition of sleep deprivation, G means global and BL means under the condition of baseline performance.

[2] = system: sleep deprived non-human primates; assay: Delayed Match To Sample (DMTS) task after sleep deprivation; format: in vivo; details: for Performance on DMTS Task (% Correct ± sem): Sleep Deprivation + BCM
Description: This task consists of a kind of “heads-up” display wherein the monkey interacts with a computer video display through motions of its hand. […] A fluorescent spot on the back of the monkey's hand is tracked by an overhead camera, and the coordinates of the hand position are proportionally translated into movement of a cursor on the video display. The animal responds to single Sample phase images by placing the cursor inside the image, then after a delay (during which the display is blanked) the animal must select the appropriate Match image (out of 2-6 different images) by placing the cursor inside the image identical to the Sample. Animal performance is scored as correct responses according to length of delay, and complexity of the trial (number of match images). Recent findings have shown that primate hippocampal neurons encode specific features of the task and stimulus, and that strength of the encoding correlates to behavioral success. Recording and on-line analysis of hippocampal neural activity allows tracking of the animal's cognitive performance under various experimental conditions. Two additional measures (eye and limb movement tracking) along with recording of movement sensitive neurons in hippocampus, putamen and motor cortex provide assessment of attention and ability to perform directed motor movements. Thus, it is possible to distinguish behavioral errors due to inattention or slow movements from those caused by inappropriate cognitive processing of the task information.
as §1

COc1ccc(C(=O)N2CCCC2=O)cc1 [Aniracetam]
Mean open time of the AMPA receptor channel (AMPA receptor): increase the mean open time
Amplitude of the synaptic current (AMPA receptor; mirrored in the field EPSP): increases the amplitude
Duration of the synaptic current (AMPA receptor; mirrored in the field EPSP): prolongs its duration

O=C(c1ccc2nonc2c1)N1CCOCC1 [BCM, 1-(Benzofurazan-5-ylcarbonyl)morpholine]
Metabolism (absolute uptake of FDG) in all brain regions ([1]; BCM following sleep deprivation, compared to vehicle administration, FIG. 2): reduced compared to vehicle administration
Metabolism (uptake of FDG) in several brain regions relative to normal ([1]; BCM following sleep deprivation, FIG. 2): near normal levels
Energy demand of the brain to perform the DMTS task (FDG uptake normalized to global brain metabolism) ([1]; FIG. 3, normalized data): reduction in energy demand
Effect on the performance deficit in DMTS task caused by sleep deprivation ([2]; 0.8 mg/kg (iv), single night of sleep deprivation): completely reversed the performance deficit
Performance compared to baseline ([2]; Subject 1, 0.8 mg/kg (iv) after sleep deprivation): enhanced performance compared to baseline
Performance on DMTS Task (% Correct ± sem) ([2]; Subject No. 1, 0.8 mg/kg (iv), baseline 81 ± 2, sleep deprivation 65 ± 1): 87 ± 2 % Correct
Performance on DMTS Task (% Correct ± sem) ([2]; Subject No. 2, 0.8 mg/kg (iv), baseline 81 ± 2, sleep deprivation 67 ± 4): 83 ± 3 % Correct
Latencies to respond in the Match phase ([2]; drug administration after sleep deprivation, FIG. 1): not effected

O=C(c1ccc2nccnc2c1)N1CCCCC1 [CX516, 1-(Quinoxaline-6-ylcarbonyl)piperidine]
Improving performance in DMTS task ([2]; in vivo): effective at improving performance
